# Publication PMC2566937 (Journal of medicinal chemistry, 2008)
# Values joined by “and” are separate entries in the source; they are usually repeats but may differ in a detail not shown here. Equal entries are not always repeated. “Also recorded” adds a separate entry of the source. Marks after values point to notes of the source that are not given here.
# Key:
# α1β3γ2 GABAA receptor [1] = target: T1, α1β3γ2 GABAA receptor (Rattus norvegicus, UniProt P62813+P63079); details: for Current induced by compound alone, % of maximal GABA-induced current: 1 mM compound
# α3β3γ2 GABAA receptor [2] = target: T2, α3β3γ2 GABAA receptor (Rattus norvegicus, UniProt P20236+P63079); type: cell-based; details: 1 mM compound co-applied with approx. GABA EC20–25
# [3] = system: GABA recognition site (GABAA receptors) in native cortical membranes; test: [3H]muscimol binding, rat cortical membranes; details: for Inhibition of muscimol binding at 100 μM (criterion for full binding analysis): cortical and cerebellar membranes (tissue not given); for pseudo-Hill coefficient η, cortex: against 6 nM [3H]muscimol, mean ± S.E.M.
# [4] = system: GABA recognition site (GABAA receptors) in native cerebellar membranes; test: [3H]muscimol binding, rat cerebellar membranes; details: for pseudo-Hill coefficient η, cerebellum: against 6 nM [3H]muscimol, mean ± S.E.M.
# α1R66Cβ2 GABAA receptor = α1R66Cβ2 GABAA receptor (Rattus norvegicus, UniProt P62813+P63138, R93C)
# α4β3γ2 GABAA receptor = α4β3γ2 GABAA receptor (Rattus norvegicus, UniProt P28471+P63079); details: for Current induced by compound alone, % of maximal GABA-induced current: 1 mM compound
# α3β3γ2 GABAA receptor [5] = target: T2, α3β3γ2 GABAA receptor
# α5β3γ2 GABAA receptor = α5β3γ2 GABAA receptor (Rattus norvegicus, UniProt P19969+P63079)
# α1β2 wt GABAA receptor [6] = target: T3, α1β2 wt GABAA receptor (Rattus norvegicus, UniProt P62813+P63138); type: cell-based
# α1F64Cβ2 GABAA receptor [7] = target: T4, α1F64Cβ2 GABAA receptor (Rattus norvegicus, UniProt P62813+P63138, F91C); type: cell-based
# α1S68Cβ2 GABAA receptor = α1S68Cβ2 GABAA receptor (Rattus norvegicus, UniProt P62813+P63138, S95C); type: cell-based; details: read-out: Inhibition of the EC20 GABA current
# α1β2 wt GABAA receptor [8] = target: T3, α1β2 wt GABAA receptor; test: Cysteine modification by MTS reagent, oocyte voltage clamp, wt; type: cell-based; details: data not shown
# α1F64Cβ2 GABAA receptor [9] = target: T4, α1F64Cβ2 GABAA receptor
# α1β3γ2 GABAA receptor [10] = target: T1, α1β3γ2 GABAA receptor; type: cell-based; details: 1 mM compound co-applied with approx. GABA EC20–25
# [11] = read-out: Inhibition of the EC20 GABA current
Compound,"Current induced by compound alone, % of maximal GABA-induced current (α1β3γ2 GABAA receptor [1])",Potentiation of GABA-induced current (α3β3γ2 GABAA receptor [2]),Inhibition of muscimol binding at 100 μM (criterion for full binding analysis) [3],"pseudo-Hill coefficient η, cortex [3]","pseudo-Hill coefficient η, cerebellum [4]","Current induced by compound alone, % of maximal GABA-induced current (α4β3γ2 GABAA receptor)",also measured
"Cl.Oc1nnc(C2CCNCC2)o1 [5a, 5-Piperidin-4-yl-3H-[1,3,4]oxadiazol-2-one Hydrochloride]",less than 10%,22 ± 11%,at least 30%,0.86 ± 0.10,0.79 ± 0.06,less than 10%,"Effect of repeated application on subsequent GABA currents (α1R66Cβ2 GABAA receptor; repeated 10 s applications of 30 mM, α1R66Cβ2): did not decrease the subsequent GABA test currents; also recorded: did not irreversible alter the subsequent GABA currents"
"Cl.NCc1nnc(O)o1 [5d, 5-Aminomethyl-3H-[1,3,4]oxadiazol-2-one Hydrochloride]",–,–,at least 30%,1.12 ± 0.13,0.90 ± 0.21,–,"Hill coefficient (direct activation) (α1β3γ2 GABAA receptor [1]): 0.99 ± 0.05; EC50 (α3β3γ2 GABAA receptor [5]): 1000 µM; Hill coefficient (direct activation) (α3β3γ2 GABAA receptor [5]; α3β3γ2, value of an extrapolated dose-response curve): 0.81 ^*; Hill coefficient (direct activation) (α5β3γ2 GABAA receptor): 1.31 ± 0.12; Hill coefficient (direct activation) (α4β3γ2 GABAA receptor): 1.56 ± 0.11"
Cl.NCCc1nnc(O)o1 [5g],–,–,at least 30%,0.63 and 0.63 ± 0.06,0.92 and 0.92 ± 0.11,–,–
"Cl.Sc1nnc(C2CCNCC2)o1 [6a, 5-Piperidin-4-yl-3H-[1,3,4]oxadiazol-2-thione Hydrochloride]",less than 10%,114 ± 8%,at least 30%,0.99 ± 0.09,1.03 ± 0.08,less than 10%,inhibition at 1000 µM (α1β2 wt GABAA receptor [6]; [11]): > 90%; 6a EC50 relative to wt (α1F64Cβ2 GABAA receptor [7]): 0.6 fold; inhibition at 1000 µM (α1F64Cβ2 GABAA receptor [7]; [11]): > 90%; inhibition at 1000 µM (α1S68Cβ2 GABAA receptor): > 90%
"Cl.NCc1nnc(S)o1 [6d, 5-Aminomethyl-3H-[1,3,4]oxadiazol-2-thione Hydrochloride]",–,–,at least 30%,0.92 ± 0.05,0.96 ± 0.12,–,–
"Oc1nnc(C2CCCCC2)o1 [9d, 5-Cyclohexyl-3H-[1,3,4]oxadiazole-2-one]",–,–,–,–,–,–,"Percent inhibition of [3H]muscimol binding, cerebellum, 100 μM ([4]; 100 μM test compound, well-washed rat cerebellum membranes, mean ± S.D.): −11 ± 11 (3) %"
CS(=O)(=S)OCCNC(=O)CCCC[C@@H]1SC[C@@H]2NC(=O)N[C@@H]21 (stereo partly shown) [MTSEA-biotin],–,–,–,–,–,–,"Inhibition of subsequent GABA test currents, MTSEA-biotin alone (control) (α1R66Cβ2 GABAA receptor; 30 μM MTSEA-biotin, α1R66Cβ2, n = 2): 87% and 100%"
"CS(=O)(=O)SCCS(=O)(=O)O [MTSES^−, 2-sulfonatoethyl methanethiosulfonate]",–,–,–,–,–,–,"Effect of MTS reagent on the GABA current (α1β2 wt GABAA receptor [8]): did not affect the GABA current; Inhibition of subsequent GABA EC50 current, MTSES− alone (control) (α1R66Cβ2 GABAA receptor; 12 s, 2 mM MTSES−, α1R66Cβ2): 91 ± 3%; Inhibition of GABA EC50 currents after complete reaction with MTS reagent (α1R66Cβ2 GABAA receptor; α1R66C + β2, % ± S.E.M.): 62 ± 3 (4) %; Second-order reaction rate constant with the engineered cysteine (α1R66Cβ2 GABAA receptor; α1R66Cβ2): 48 ± 7 M⁻¹ s⁻¹; Reduction in subsequent GABA EC50 test currents, MTSES− alone (control) (α1F64Cβ2 GABAA receptor [9]; 12 s, 10 μM MTSES−, α1F64Cβ2): 87% and 87 ± 3%; Inhibition of GABA EC50 currents after complete reaction with MTS reagent (α1F64Cβ2 GABAA receptor [9]; α1F64C + β2, % ± S.E.M.): 89 ± 3 (4) %"
"Cc1nnc(C2CCNCC2)o1.Cl [compound 19, 4-(5-Methyl-[1,3,4]oxadiazol-2-yl)-piperidine Hydrochloride]",less than 10%,11%,at least 30%,0.88 ± 0.08,0.91 ± 0.05,less than 10%,"Current induced by compound alone, % of maximal GABA-induced current (α3β3γ2 GABAA receptor [5]; 1 mM compound, α3β3γ2): less than 10%; Current induced by compound alone, % of maximal GABA-induced current (α5β3γ2 GABAA receptor; 1 mM compound): less than 10%; Potentiation of GABA-induced current (α1β3γ2 GABAA receptor [10]): 21%"
"C=C(C)[C@@H]1[C@H]2OC(=O)[C@@H]1[C@]1(O)C[C@H]3O[C@]34C(=O)O[C@H]2[C@]14C [picrotoxinin, reference compound]",–,–,–,–,–,–,inhibition at 100 µM (α1β2 wt GABAA receptor [6]; read-out: Inhibition of 6a-induced currents): 80 to 90%
